Data published in US9353104B2, “Substituted pyridizinone derivatives as PDE10 inhibitors” (priority 2013, dated 2016).
pKi: −log10 of the molar value.

Target: human PDE10A2 (Homo sapiens (Human), UniProt Q9Y233)
Test: PDE10 fluorescence polarization (IMAP FP) inhibition assay
Format: biochemical
Details: human PDE10A2 lysate, FAM-labeled cAMP 50 nM, room temperature; read-out: PDE10A Ki
Procedure, shortened: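 Cytoplasmic lysate of AD293 cells transiently expressing human PDE10A2, diluted for ~20% conversion of 50 nM FAM-cAMP, in 10 mM Tris pH 7.2, 10 mM MgCl2, 1 mM DTT, 0.01% Tween-20. Reaction 30 min at room temperature, read by IMAP fluorescence polarization; 10-point 3-fold titrations, 1% DMSO as 0%, reference PDE10 inhibitor at 5,000× Ki as 100%.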

human PDE10A2, sequence (Q9Y233 267-1055): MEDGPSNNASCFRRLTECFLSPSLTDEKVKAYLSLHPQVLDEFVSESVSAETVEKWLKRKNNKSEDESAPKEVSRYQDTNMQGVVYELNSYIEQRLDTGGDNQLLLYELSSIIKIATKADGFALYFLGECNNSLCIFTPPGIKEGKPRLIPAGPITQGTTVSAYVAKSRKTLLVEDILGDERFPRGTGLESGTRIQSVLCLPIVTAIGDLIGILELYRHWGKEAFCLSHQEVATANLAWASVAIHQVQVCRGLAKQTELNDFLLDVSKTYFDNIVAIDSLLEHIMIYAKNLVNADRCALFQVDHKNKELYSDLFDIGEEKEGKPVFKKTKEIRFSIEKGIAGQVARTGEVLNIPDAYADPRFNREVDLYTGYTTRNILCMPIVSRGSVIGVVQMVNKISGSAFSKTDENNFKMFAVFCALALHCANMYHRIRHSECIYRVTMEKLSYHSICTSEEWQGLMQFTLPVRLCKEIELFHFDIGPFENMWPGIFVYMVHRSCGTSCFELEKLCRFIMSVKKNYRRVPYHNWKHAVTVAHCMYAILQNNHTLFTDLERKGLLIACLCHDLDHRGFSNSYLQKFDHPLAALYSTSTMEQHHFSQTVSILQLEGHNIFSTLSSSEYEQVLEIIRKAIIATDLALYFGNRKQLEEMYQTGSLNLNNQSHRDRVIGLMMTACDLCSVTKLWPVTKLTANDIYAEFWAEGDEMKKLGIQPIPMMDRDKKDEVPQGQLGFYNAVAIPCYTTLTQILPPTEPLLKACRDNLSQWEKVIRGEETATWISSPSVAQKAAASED

SMILES	pKi
COc1ccc([C@H]2C[C@@H]2COc2cc(NCc3cnn(C)c3N(C)C)c(=O)n(C)n2)nc1 [Example 83, 4-(((5-(dimethylamino)-1-methyl-1H-pyrazol-4-yl)methyl)amino)-6-(((1S,2S)-2-(5-methoxypyridin-2-yl)cyclopropyl)methoxy)-2-methylpyridazin-3(2H)-one]	7.37
Cc1cnn(C)c1CNc1cc(OC[C@H]2C[C@@H]2c2ccn(C)n2)nn(C)c1=O [Example 86, 4-(((1,4-dimethyl-1H-pyrazol-5-yl)methyl)amino)-2-methyl-6-(((1S,2S)-2-(1-methyl-1H-pyrazol-3-yl)cyclopropyl)methoxy)-pyridazin-3(2H)-one]	8.03
COc1ccc([C@H]2C[C@@H]2COc2cc(NCc3cc(C)on3)c(=O)n(C)n2)nc1 [Example 87, 6-(((1S,2S)-2-(5-methoxypyridin-2-yl)cyclopropyl)methoxy)-2-methyl-4-(((5-methylisoxazol-3-yl)methyl)amino)pyridazin-3(2H)-one]	11.00
COc1ccc([C@H]2C[C@@H]2COc2cc(NCc3nc(C)nn3C)c(=O)n(C)n2)nc1 [Example 88, 4-(((1,3-dimethyl-1H-1,2,4-triazol-5-yl)methyl)amino)-6-(((1S,2S)-2-(5-methoxypyridin-2-yl)cyclopropyl)methoxy)-2-methylpyridazin-3(2H)-one]	8.55
COc1ccc([C@H]2C[C@@H]2COc2cc(NCc3cc(C)no3)c(=O)n(C)n2)nc1 [Example 89, 6-(((1S,2S)-2-(5-methoxypyridin-2-yl)cyclopropyl)methoxy)-2-methyl-4-(((3-methylisoxazol-5-yl)methyl)amino)pyridazin-3(2H)-one]	11.10
COc1ccc([C@H]2C[C@@H]2COc2cc(N(Cc3ccc(C)nc3C)Cc3ccc(C)nc3C)c(=O)n(C)n2)nc1 [Example 91, 4-(bis((2,6-dimethylpyridin-3-yl)methyl)amino)-6-(((1S,2S)-2-(5-methoxypyridin-2-yl)cyclopropyl)methoxy)-2-methylpyridazin-3(2H)-one]	8.23
COc1ccc([C@H]2C[C@@H]2COc2cc(NC(=O)c3cnn(C)c3Cl)c(=O)n(C)n2)nc1 [Example 95, 5-chloro-N-(6-(((1S,2S)-2-(5-methoxypyridin-2-yl)-cyclopropyl)methoxy)-2-methyl-3-oxo-2,3-dihydro-pyridazin-4-yl)-1-methyl-1Hpyrazole-4carboxamide]	7.12
COc1ccc([C@H]2C[C@@H]2COc2cc(NCc3cnn(C)c3Cl)c(=O)n(C)n2)nc1 [Example 96, 4-(((5-chloro-1-methyl-1H-pyrazol-4-yl)methyl)-amino)-6-(((1S,2S)-2-(5-methoxypyridin-2-yl)-cyclopropyl)methoxy)-2-methylpyridazin-3(2H)one]	8.90
COc1ccc([C@H]2C[C@@H]2COc2cc(NCc3cccc(C)n3)c(=O)n(C)n2)nc1 [Example 97, 6-(((1S,2S)-2-(5-methoxypyridin-2-yl)-cyclopropyl)methoxy)-2-methyl-4-(((6-methyl-pyridin-2-yl)methyl)-amino)pyridazin-3(2H)one]	8.57
Cn1ccc([C@H]2C[C@@H]2COc2cc(NCc3ccnn3C)c(=O)n(C)n2)n1 [Example 98, 2-methyl-6-(((1S,2S)-2-(1-methyl-1H-pyrazol-3-yl)cyclopropyl)methoxy)-4-(((1-methyl-1H-pyrazol-5-yl)methyl)amino)-pyridazin-3(2H)-one]	8.82
Cc1ccc([C@H]2C[C@@H]2COc2cc(NCc3ccnn3C)c(=O)n(C)n2)nc1 [Example 99, 2-methyl-4-(((1-methyl-1H-pyrazol-5-yl)methyl-)amino)-6-(((1S,2S)-2-(5-methylpyridin-2-yl)cyclo-propyl)methoxy)pyridazin-3(2H)-one]	9.86
COc1ccc([C@H]2C[C@@H]2COc2cc(NCc3ccnn3C)c(=O)n(C)n2)nc1 [Example 100, 6-(((1S,2S)-2-(5-methoxypyridin-2-yl)-cyclopropyl)methoxy)-2-methyl-4-(((1-methyl-1H-pyrazol-5-yl)methyl)-amino)pyridazin-3(2H)one]	9.72
COc1ccc([C@H]2C[C@@H]2COc2cc(NC(=O)c3cc(C)nn3C)c(=O)n(C)n2)nc1 [Example 101, N-(6-(((1S,2S)-2-(5-methoxypyridin-2-yl)-cyclopropyl)methoxy)-2-methyl-3-oxo-2,3-dihydropyridazin-4-yl)-1,3-dimethyl-1H-pyrazole-5-carboxamide]	7.12
Cc1ccc([C@H]2C[C@@H]2COc2cc(NC(=O)c3cc(C)nn3C)c(=O)n(C)n2)nc1 [Example 102, 1,3-dimethyl-N-(2-methyl-6-(((1S,2S)-2-(5-methyl-pyridin-2-yl)cyclopropyl-)methoxy)-3-oxo-2,3-dihydropyridazin-4-yl)-1H-pyrazole-5-carboxamide]	7.29
Cc1cc(C(=O)Nc2cc(OC[C@H]3C[C@@H]3c3ccn(C)n3)nn(C)c2=O)n(C)n1 [Example 103, 1,3-dimethyl-N-(2-methyl-6-(((1S,2S)-2-(1-methyl-1H-pyrazol-3-yl)cyclopropyl)methoxy)-3-oxo-2,3-dihydropyridazin-4-yl)-1H-pyrazole-5-carboxamide]	7.12
Cc1ccc([C@H]2C[C@@H]2COc2cc(NCc3cn(C)nc3C(F)(F)F)c(=O)n(C)n2)nc1 [Example 104, 2-methyl-4-(((1-methyl-3-(trifluoromethyl)-1H-pyrazol-4-yl)methyl)-amino)-6-(((1S,2S)-2-(5-methylpyridin-2-yl)cyclo-propyl)methoxy)pyridazin-3(2H)-one]	10.25
COc1ccc([C@H]2C[C@@H]2COc2cc(NCc3cc(C)ccn3)c(=O)n(C)n2)nc1 [Example 105, 6-(((1S,2S)-2-(5-methoxy-pyridin-2-yl)cyclopropyl-)methoxy)-2-methyl-4-(((-4-methylpyridin-2-yl)-methyl)amino)pyridazin-3(2H)-one]	9.56
CCn1ccc(CNc2cc(OC[C@H]3C[C@@H]3c3ccc(OC)cn3)nn(C)c2=O)n1 [Example 106, 4-(((1-ethyl-1H-pyrazol-3-yl)methyl)amino)-6-(((-1S,2S)-2-(5-methoxy-pyridin-2-yl)cyclopropyl-)methoxy)-2-methyl-pyridazin-3(2H)-one]	8.23
Cc1ncc(CNc2cc(OC[C@H]3C[C@@H]3c3nn(C)c4ccccc34)nn(C)c2=O)s1 [Example 109, 2-methyl-6-(((1S,2S)-2-(1-methyl-1H-indazol-3-yl)cyclopropyl)methoxy)-4-((2-methylthiazol-5-yl)methylamino)pyridazin-3(2H)-one]	8.67
Cc1ncc(CNc2cc(OC[C@@H]3C[C@H]3c3nn(C)c4ccccc34)nn(C)c2=O)s1 [Example 110, 2-methyl-6-(((1R,2R)-2-(1-methyl-1H-indazol-3-yl)cyclopropyl)methoxy)-4-((2-methylthiazol-5-yl)methylamino)pyridazin-3(2H)-one]	10.11
Cn1cc(CNc2cc(OC[C@H]3C[C@@H]3c3nn(C)c4ccccc34)nn(C)c2=O)cn1 [Example 111, 2-methyl-6-(((1S,2S)-2-(1-methyl-1H-indazol-3-yl)cyclopropyl)methoxy)-4-((1-methyl-1H-pyrazol-4-yl)methylamino)-pyridazin-3(2H)-one]	8.72
